# How the values were obtained:
# [1] = tested on: rat; settings: Chronic toxicity; sprague dawley; Oral; Gavage/Intubation; dose end: 26 week; group: systemic; systemic / clinical chemistry / alanine aminotransferase (alt/sgpt) / alanine aminotransferase (alt/sgpt) + systemic / clinical chemistry / …
# [2] = tested on: rat; settings: Fertility (Segment I), sprague dawley, Oral, Gavage/Intubation, dose end: 6 GD
# [3] = tested on: dog; settings: Chronic toxicity, beagle, Oral, Gavage/Intubation, dose end: 26 week, group: systemic
# [4] = tested on: rat; settings: Sub-acute repeat dose toxicity; sprague dawley; Oral; Gavage/Intubation; dose end: 1 month; group: systemic; systemic / clinical chemistry / protein / protein + systemic / clinical chemistry / alanine aminotransferase (alt/sgpt) / alanine …
# [5] = tested on: dog; settings: Subchronic oral toxicity in nonrodent, beagle, Gavage/Intubation, dose end: 1 month, group: systemic
# [6] = tested on: primate; settings: Sub-acute repeat dose toxicity; macaque; Oral; Gavage/Intubation; dose end: 35 day; group: systemic; systemic / clinical chemistry / bilirubin / total bilirubin
# [7] = tested on: rat; settings: Fertility (Segment I), sprague dawley, Oral, Gavage/Intubation, dose end: 63 day, group: parental
# [8] = tested on: rat; settings: Prenatal developmental toxicity study, sprague dawley, Oral, Gavage/Intubation, dose end: 15 GD
# [9] = tested on: dog; settings: Chronic toxicity; beagle; Oral; Capsule; dose end: 26 week; group: systemic; systemic / in life observation / clinical signs / defecation (diarrhea) + systemic / in life observation / clinical signs / mucoid stools + …
# [10] = tested on: mouse; settings: Combined chronic toxicity/carcinogenicity; cd1; Oral; [Not Specified]; dose end: 18 month; group: systemic; systemic / pathology microscopic / lung / adenoma + systemic / pathology microscopic / lung / carcinoma
# [11] = tested on: rat; settings: Subchronic oral toxicity in rodents, sprague dawley, Feed, dose end: 91 day, group: systemic
# [12] = tested on: rat; settings: Multigenerational reproductive toxicity study, sprague dawley, Oral, Feed, dose end: 2 generation
# [13] = tested on: rat; settings: Chronic toxicity; other; Oral; Feed; dose end: 24 month; group: systemic; systemic / organ weight / testes / nos + systemic / pathology gross / testes / reduced size + systemic / pathology microscopic / testes / …
# [14] = tested on: rabbit; settings: Prenatal developmental toxicity study, new zealand white, Oral, Gavage/Intubation, dose end: 18 GD
# [15] = tested on: dog; settings: Subchronic oral toxicity in nonrodent, beagle, Capsule, dose end: 91 day, group: systemic
# [16] = group: maternal, reproductive / reproductive performance / estrous cycle / abnormal
# [17] = group: parental, systemic / in life observation / body weight / body weight gain + systemic / in life observation / clinical signs / salivation + systemic / …
# [18] = systemic / organ weight / adrenal gland / absolute + systemic / organ weight / adrenal gland / relative to body weight
# [19] = systemic / organ weight / adrenal gland / absolute + systemic / organ weight / adrenal gland / relative to body weight + systemic / clinical…
# [20] = systemic / in life observation / body weight / body weight + systemic / organ weight / thymus / relative to body weight
# [21] = systemic / in life observation / body weight / body weight + systemic / organ weight / thymus / relative to body weight + systemic / …
# [22] = systemic / in life observation / body weight / body weight + systemic / in life observation / body weight / body weight gain + systemic / in…
# [23] = group: developmental, developmental / developmental malformation / bone / incomplete ossification + developmental / developmental malformation / general / [other…
# [24] = group: maternal, systemic / in life observation / body weight / body weight + systemic / in life observation / clinical signs / fat, discoloration + systemic…
# [25] = systemic / organ weight / testes / nos + systemic / in life observation / body weight / body weight + systemic / in life observation / food …
# [26] = group: parental, systemic / pathology gross / testes / degeneration + systemic / pathology microscopic / testes / aspermia + systemic / pathology microscopic…
# [27] = group: reproductive, reproductive / reproductive performance / fertility / fertility + reproductive / reproductive performance / mating / mating
# [28] = group: developmental, systemic / in life observation / body weight / fetal weight
# [29] = group: maternal, systemic / in life observation / clinical signs / anogenital staining + systemic / in life observation / clinical signs / defecation + …
# [30] = systemic / clinical chemistry / alanine aminotransferase (alt/sgpt) / alanine aminotransferase (alt/sgpt) + systemic / in life observation…
# [31] = systemic / in life observation / body weight / body weight
compound,measurement,setting,value
Cc1cc2c(cc1C(F)(F)F)N(C(=O)Nc1ccc(Oc3cccnc3C)nc1)CC2.Cl,LEL,[1],2 mg/kg/day
same,LOAEL,[1],> 100 mg/kg/day
same,NEL,[1],< 2 mg/kg/day
same,NOAEL,[1],≥ 100 mg/kg/day
same,LEL,[2]; [16],20 mg/kg/day
same,LOAEL,[2]; [16],> 20 mg/kg/day
same,NEL,[2]; [16],2 mg/kg/day
same,NOAEL,[2]; [16],≥ 20 mg/kg/day
same,LEL,[2]; [17],2 mg/kg/day
same,LOAEL,[2]; [17],> 20 mg/kg/day
same,NEL,[2]; [17],0.2 mg/kg/day
same,NOAEL,[2]; [17],≥ 20 mg/kg/day
same,LEL,[3]; [18],2 mg/kg/day
same,NEL,[3]; [18],< 2 mg/kg/day
same,LOAEL,[3]; [19],> 300 mg/kg/day
same,NOAEL,[3]; [19],≥ 300 mg/kg/day
same,LEL,[4],2 mg/kg/day
same,LOAEL,[4],> 200 mg/kg/day
same,NEL,[4],< 2 mg/kg/day
same,NOAEL,[4],≥ 200 mg/kg/day
same,LEL,[5]; [20],2 mg/kg/day
same,NEL,[5]; [20],< 2 mg/kg/day
same,LOAEL,[5]; [21],> 1000 mg/kg/day
same,NOAEL,[5]; [21],≥ 1000 mg/kg/day
same,LEL,[6],1000 mg/kg/day
same,LOAEL,[6],> 1000 mg/kg/day
same,NEL,[6],300 mg/kg/day
same,NOAEL,[6],≥ 1000 mg/kg/day
same,LOAEL,[7]; [22],> 200 mg/kg/day
same,NEL,[7]; [22],2 mg/kg/day
same,NOAEL,[7]; [22],≥ 200 mg/kg/day
same,LEL,[7]; systemic / in life observation / body weight / body weight gain,20 mg/kg/day
CC1(C)CN=C(NN=C(C=Cc2ccc(C(F)(F)F)cc2)C=Cc2ccc(C(F)(F)F)cc2)NC1 [Hydramethylnon],LEL,[8]; [23],30 mg/kg/day
same,LOAEL,[8]; [23],30 mg/kg/day
same,NEL,[8]; [23],10 mg/kg/day
same,NOAEL,[8]; [23],10 mg/kg/day
same,LEL,"[8]; group: maternal, systemic / in life observation / body weight / body weight + systemic / in life observation / clinical signs / fat, discoloration",10 mg/kg/day
same,LOAEL,[8]; [24],30 mg/kg/day
same,NEL,[8]; [24],3 mg/kg/day
same,NOAEL,[8]; [24],10 mg/kg/day
same,LEL,[9],3 mg/kg/day
same,LOAEL,[9],3 mg/kg/day
same,NEL,[9],1 mg/kg/day
same,NOAEL,[9],1 mg/kg/day
same,LEL,[10],4.45 mg/kg/day
same,LOAEL,[10],4.45 mg/kg/day
same,NEL,[10],< 4.45 mg/kg/day
same,NOAEL,[10],< 4.45 mg/kg/day
same,LEL,[11]; systemic / organ weight / testes / nos,2.5 mg/kg/day
same,NEL,[11]; [25],1.25 mg/kg/day
same,NOAEL,[11]; [25],2.5 mg/kg/day
same,LOAEL,[11]; systemic / organ weight / testes / nos + systemic / pathology microscopic / testes / atrophy,5 mg/kg/day
same,LEL,[12]; [26],3.32 mg/kg/day
same,LOAEL,[12]; [26],3.32 mg/kg/day
same,NEL,[12]; [26],1.66 mg/kg/day
same,NOAEL,[12]; [26],1.66 mg/kg/day
same,LEL,[12]; [27],5.07 mg/kg/day
same,LOAEL,[12]; [27],> 5.07 mg/kg/day
same,NEL,[12]; [27],3.32 mg/kg/day
same,NOAEL,[12]; [27],≥ 5.07 mg/kg/day
same,LEL,[13],4.9 mg/kg/day
same,LOAEL,[13],4.9 mg/kg/day
same,NEL,[13],2.4 mg/kg/day
same,NOAEL,[13],2.4 mg/kg/day
same,LEL,[14]; [28],10 mg/kg/day
same,LOAEL,[14]; [28],10 mg/kg/day
same,NEL,[14]; [28],5 mg/kg/day
same,NOAEL,[14]; [28],5 mg/kg/day
same,LEL,[14]; [29],10 mg/kg/day
same,LOAEL,[14]; [29],10 mg/kg/day
same,NEL,[14]; [29],5 mg/kg/day
same,NOAEL,[14]; [29],5 mg/kg/day
same,LOAEL,[15]; [30],6 mg/kg/day
same,NOAEL,[15]; [30],3 mg/kg/day
same,LEL,[15]; [31],3 mg/kg/day
same,NEL,[15]; [31],< 3 mg/kg/day

# From EPA's ToxRefDB 2
